# Laboratory results: the NIST ThermoML archive (doi:10.1016/j.tca.2008.10.019)
# Numbers after ± are expanded uncertainties.
# How the values were obtained:
# [1] = Crystal; DTA
# [2] = Molar enthalpy of transition or fusion; conditions: Crystal; DSC
structure (smiles),measurement,setting,value
"NC(=O)CC(N)=O [1,3-propanedioic acid, diamide]",Normal melting temperature,[1],170.00 ± 0.5 °C
same,Molar enthalpy of transition or fusion,[2],5.55 ± 0.172 kcal/mol
